Measured values published in the NIST ThermoML archive (doi:10.1016/j.jct.2013.01.032).

Columns and labels:
[1] = mn = molality of the nth substance listed, in mol/kg; settings: 101 kPa, Liquid; for speed of sound: Sing-around technique in a fixed-path interferometer; for mass density: Vibrating tube method
[2] = osmotic coefficient (dimensionless); mn = molality of the nth substance listed, in mol/kg; settings: 323.15 K, Liquid, Knauer Osmometer

CCCCn1cc[n+](C)c1.O=S(=O)([O-])C(F)(F)F [1-butyl-3-methylimidazolium trifluoromethanesulfonate] + CCCO
[1]
Settings	mass density, 293.15 K [kg/m3]	mass density, 308.15 K [kg/m3]	mass density, 323.15 K [kg/m3]	speed of sound, 293.15 K [m/s]	speed of sound, 308.15 K [m/s]	speed of sound, 323.15 K [m/s]
m1 = 0.05	808.59	796.51	784.03	1225.2	1174.1	1123.8
m1 = 0.101	813.12	801.04	788.57	1225.9	1175.1	1125.1
m1 = 0.15	817.38	805.31	792.86	1226.2	1176	1126.3
m1 = 0.2	821.64	809.57	797.12	1226.7	1176.8	1127.3
m1 = 0.25	825.82	813.75	801.31	1227.4	1177.6	1128.4
m1 = 0.758	864.71	852.6	840.18	1232.4	1184.8	1137.7
m1 = 1.004	881.36	869.23	856.81	1235	1188.2	1141.9
m1 = 1.258	897.18	885.04	872.62	1237.6	1191.7	1146.2
m1 = 1.524	912.6	900.41	887.99	1241.2	1195.4	1150.5
m1 = 1.771	925.96	913.75	901.33	1243.6	1198.7	1154.5
m1 = 2.021	938.44	926.22	913.81	1246.4	1202	1158.4
m1 = 2.517	960.93	948.73	936.31	1251.9	1208.4	1165.7
m1 = 3.011	981.02	968.77	956.37	1257.1	1214.8	1172.9

[2]
Settings	osmotic coefficient
m1 = 0.0299	0.906
m1 = 0.0473	0.817
m1 = 0.0849	0.775
m1 = 0.0975	0.755
m1 = 0.2019	0.66
m1 = 0.2968	0.612
m1 = 0.4022	0.575
m1 = 0.5062	0.549
m1 = 0.8045	0.494
m1 = 1.206	0.445
m1 = 1.64	0.412
m1 = 2.044	0.39
m1 = 2.44	0.378
m1 = 2.829	0.361
m1 = 3.316	0.34
